Measurements: US9981909B2 (Janssen Pharmaceutica NV, priority 2008, dated 2018)
Where a name gives a salt, the structure may show the parent alone.

Molecular target: rat 5-HT7 receptor (Rattus norvegicus (Rat), UniProt P32305)
Assay: r5-HT7 binding assay, competitive radioligand binding with [3H]5-CT
Settings: rat 5-HT7, HEK-293 membranes
Protocol: Receptor binding was performed using membrane fractions prepared from the HEK-293 cell line recombinantly expressing rat 5-HT7 receptors (NCBI accession NM_022938). Compound affinity for the rat 5-HT7 receptor subtype was evaluated by competitive radioligand binding assays using 5-carboxamido[^3H]tryptamine ([^3H]5-CT) (Amersham Biosciences, cat. 90000403) detection. HitHunter™ cAMP assays are in-vitro based competitive immunoassays. The assay was performed on the HEK-293 cell line stably transfected with r5-HT7 receptor. Cells were pre-incubated with test compounds for 10 minutes. For antagonist testing, the cells were then challenged with 100 nM 5-CT for 20 minutes. Cells were then lysed and cAMP measured according to manufacturers protocol (Amersham, cat. NET791250UC) or [^3H]mesulergine (Amersham, cat. TRK1041). The assay was performed on membranes prepared from HEK-293 cells stably transfected with h5-HT6. Following centrifugation, membranes were resuspended and incubated for 60 min at room temperature with 1.7 nM [^3H]LSD in the presence of increasing concentration of test compounds. Nonspecific binding was defined in the presence of 10 μM clozapine (Tocris, cat. TRK1068). Homogenized HEK-293 membranes expressing the human SERT were incubated in 50 mM Tris-HCl (pH 7.5), 120 mM NaCl, 5 mM KCl with [^3H]-citalopram (3 nM) with or without test compounds. Nonspecific binding was determined in the presence of 10 μM fluoxetine. Radioactivity readouts and Ki values were performed as previously described for r5-HT7. […] Compounds were assayed in their free form or as salts, as indicated in the Examples section above.

Sequence of rat 5-HT7 receptor (P32305 1-435): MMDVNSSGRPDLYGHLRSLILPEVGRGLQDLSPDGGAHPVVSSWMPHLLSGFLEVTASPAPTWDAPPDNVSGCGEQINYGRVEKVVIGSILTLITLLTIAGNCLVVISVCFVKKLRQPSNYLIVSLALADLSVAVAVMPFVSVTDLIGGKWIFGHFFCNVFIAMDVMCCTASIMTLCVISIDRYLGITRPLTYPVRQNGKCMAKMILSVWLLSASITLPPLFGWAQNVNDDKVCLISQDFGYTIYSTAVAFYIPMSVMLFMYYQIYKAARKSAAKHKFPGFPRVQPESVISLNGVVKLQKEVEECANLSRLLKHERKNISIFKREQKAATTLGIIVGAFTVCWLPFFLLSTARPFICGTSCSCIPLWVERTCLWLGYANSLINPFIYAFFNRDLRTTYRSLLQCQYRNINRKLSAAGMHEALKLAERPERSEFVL

In order of falling Ki:
1. CCC1(Oc2cc(Br)ccc2OCc2cccc(Cl)c2)CNC1 [Example 213, 3-[5-Bromo-2-(3-chloro-benzyloxy)-phenoxy]-3-ethyl-azetidine]  4590 nM
2. Cc1ccccc1C(=O)c1ccc(Br)cc1OC1CNC1 [Example 285, [2-(Azetidin-3-yloxy)-4-bromo-phenyl]-o-tolyl-methanone]  3000 nM
3. Clc1ccc(OC2CN(C(c3ccccc3)c3ccccc3)C2)c(OC2CNC2)c1 [Example 225, 3-[5-Chloro-2-(1-benzhydryl-azetidin-3-ol)-phenoxy]-azetidine]  2670 nM
4. Clc1ccc(Oc2nc3ccccc3s2)c(OC2CNC2)c1 [Example 261, 2-[2-(Azetidin-3-yloxy)-4-chloro-phenoxy]-benzothiazole]  1600 nM
5. Clc1ccc(OC2CNC2)c(OC2CNC2)c1 [Example 226]  840 nM
6. CC(Oc1cc(Br)ccc1OCc1cccc(Cl)c1)C1(O)CNC1 (centres unmarked) [Example 236, 3-[1-[5-Bromo-2-(3-chloro-benzyloxy)-phenoxy]-ethyl]-azetidin-3-ol]  831 nM
7. OC1(COc2cc(Br)ccc2OCc2cccc(Cl)c2)CNC1 [Example 235, 3-[5-Bromo-2-(3-chloro-benzyloxy)-phenoxymethyl]-azetidin-3-ol]  665 nM
8. Clc1ccc(Oc2ccc3cccnc3n2)c(OC2CNC2)c1 [Example 263, 2-[2-(Azetidin-3-yloxy)-4-chloro-phenoxy]-[1,8]naphthyridine]  544 nM
9. CCc1noc(COc2ccc(Cl)cc2OC2CNC2)n1 [Example 243, 5-[2-(Azetidin-3-yloxy)-4-chloro-phenoxymethyl]-3-ethyl-[1,2,4]oxadiazole hydrochloride]  461 nM
10. Cc1ccccc1Oc1ccc(Cl)cc1OC1CNC1 [Example 259, 3-(5-Chloro-2-o-tolyloxy-phenoxy)-azetidine trifluoroacetate]  460 nM
11. CC(C)N1CC(Oc2ccc(Cl)cc2OC2CN(C(C)C)C2)C1 [Example 227, 3-[5-Chloro-2-(1-Isopropyl-azetidin-3-ol)-phenoxy]-1-isopropyl-azetidine]  336 nM
12. CC(C)c1noc(COc2ccc(Cl)cc2OC2CNC2)n1 [Example 242, 5-[2-(Azetidin-3-yloxy)-4-chloro-phenoxymethyl]-3-isopropyl-[1,2,4]oxadiazole hydrochloride]  273 nM
13. Clc1ccc(OCc2nc(C3CC3)no2)c(OC2CNC2)c1 [Example 241, 5-[2-(Azetidin-3-yloxy)-4-chloro-phenoxymethyl]-3-cyclopropyl-[1,2,4]oxadiazole hydrochloride]  263 nM
14. Clc1ccc(OCc2nc(C3CCC3)no2)c(OC2CNC2)c1 [Example 240, 5-[2-(Azetidin-3-yloxy)-4-chloro-phenoxymethyl]-3-cyclobutyl-[1,2,4]oxadiazole]  252 nM
15. Cc1noc(COc2ccc(Cl)cc2OC2CNC2)n1 [Example 239, 5-[2-(Azetidin-3-yloxy)-4-chloro-phenoxymethyl]-3-methyl-[1,2,4]oxadiazole]  233 nM
16. O=C(c1ccc2c(c1)OCO2)c1ccc(Cl)cc1OC1CNC1 [Example 295, [2-(Azetidin-3-yloxy)-4-chloro-phenyl]-benzo[1,3]dioxol-5-yl-methanone]  226 nM
17. Clc1cccc(COc2ccc(Cl)cc2COC2CNC2)c1 [Example 238, 3-[5-Chloro-2-(3-chloro-benzyloxy)-benzyloxy]-azetidine]  200 nM
18. Brc1ccc(Oc2cccc3ccccc23)c(OC2CNC2)c1 [Example 255, 3-[5-Bromo-2-(naphthalen-1-yloxy)-phenoxy]-azetidine]  196 nM
19. CC(C)N1CC(Oc2cc(Cl)ccc2C(=O)c2ccc3c(c2)OCO3)C1 [Example 296, Benzo[1,3]dioxol-5-yl-[4-chloro-2-(1-isopropyl-azetidin-3-yloxy)-phenyl]-methanone]  181 nM
20. Clc1ccc(Oc2ccccc2)c(OC2CNC2)c1 [Example 256, 3-(5-Chloro-2-phenoxy-phenoxy)-azetidine]  160 nM
21. CC(C)N1CC(Oc2cc(Br)ccc2C(=O)c2ccc3c(c2)OCO3)C1 [Example 290, Benzo[1,3]dioxol-5-yl-[4-bromo-2-(1-isopropyl-azetidin-3-yloxy)-phenyl]-methanone]  143 nM
22. CN1CC(COc2cc(Br)ccc2OCc2cccc(Cl)c2)C1 [Example 234, 3-[5-Bromo-2-(3-chloro-benzyloxy)-phenoxymethyl]-1-methyl-azetidine]  130 nM
23. Clc1ccc(Oc2ccccc2)c(OC2CCNCC2)c1 [Example 265, 4-(5-Chloro-2-phenoxy-phenoxy)-piperidine]  130 nM
24. Clc1cccc(COc2ccc(Br)cc2COC2CNC2)c1 [Example 237, 3-[5-Bromo-2-(3-chloro-benzyloxy)-benzyloxy]-azetidine]  120 nM
25. O=C(c1ccccc1)c1ccc(Br)cc1OC1CNC1 [Example 280]  98 nM
26. O=C(c1ccc(Cl)c(F)c1)c1ccc(Br)cc1OC1CNC1 [Example 292, [2-(Azetidin-3-yloxy)-4-bromo-phenyl]-(4-chloro-3-fluoro-phenyl)-methanone]  74 nM
27. O=C(c1ccc2ccccc2c1)c1ccc(Cl)cc1OC1CNC1 [Example 294, [2-(Azetidin-3-yloxy)-4-chloro-phenyl]-naphthalen-2-yl-methanone]  72 nM
28. CC1(Oc2cc(Br)ccc2Oc2ccccc2)CNC1 [Example 218, 3-(5-Bromo-2-phenoxy-phenoxy)-3-methyl-azetidine]  69 nM
29. CC(C)N1CC(Oc2ccc(Cl)cc2OC2CNC2)C1 [Example 224, 3-[5-Chloro-2-(1-Isopropyl-azetidin-3-ol)-phenoxy]-azetidine]  68 nM
30. CC(C)N1CC(Oc2cc(Br)ccc2C(=O)c2ccc3ccccc3c2)C1 [Example 288, [4-Bromo-2-(1-isopropyl-azetidin-3-yloxy)-phenyl]-naphthalen-2-yl-methanone]  59 nM
31. O=C(c1ccc(Cl)c(Cl)c1)c1ccc(Br)cc1OC1CNC1 [Example 293, [2-(Azetidin-3-yloxy)-4-bromo-phenyl]-(3,4-dichloro-phenyl)-methanone]  51 nM
32. CN1CC(Oc2cc(Br)ccc2C(=O)c2cccc(Cl)c2)C1 [Example 283, [4-Bromo-2-(1-methyl-azetidin-3-yloxy)-phenyl]-(3-chloro-phenyl)-methanone]  50 nM
33. COc1cccc(Oc2ccc(Br)cc2OC2CNC2)c1 [Example 248, 3-[5-Bromo-2-(3-methoxy-phenoxy)-phenoxy]-azetidine]  43 nM
34. COc1cccc(C(=O)c2ccc(Br)cc2OC2CNC2)c1 [Example 286, [2-(Azetidin-3-yloxy)-4-bromo-phenyl]-(3-methoxy-phenyl)-methanone]  39 nM
35. CC1(Oc2cc(Br)ccc2OCc2cccc(C(F)(F)F)c2)CNC1 [Example 217]  34 nM
36. COc1ccc(C(=O)c2ccc(Br)cc2OC2CNC2)cc1 [Example 291, [2-(Azetidin-3-yloxy)-4-bromo-phenyl]-(4-methoxy-phenyl)-methanone]  34 nM
37. Fc1ccc(Oc2ccc(Br)cc2OC2CNC2)cc1 [Example 249, 3-[5-Bromo-2-(4-fluoro-phenoxy)-phenoxy]-azetidine]  20 nM
38. Brc1ccc(Oc2ccc3ccccc3c2)c(OC2CNC2)c1 [Example 254, 3-[5-Bromo-2-(naphthalen-2-yloxy)-phenoxy]-azetidine]  19 nM
39. Cc1cccc(C(=O)c2ccc(Br)cc2OC2CNC2)c1 [Example 284, [2-(Azetidin-3-yloxy)-4-bromo-phenyl]-m-tolyl-methanone]  19 nM
40. Brc1ccc(Oc2ccc(Br)cc2OC2CNC2)cc1 [Example 250, 3-[5-Bromo-2-(4-bromo-phenoxy)-phenoxy]-azetidine]  17 nM

Same assay, conditions: rat 5-HT7 receptor, HEK-293 membranes

In order of falling Ki:
1. CN(C)C(=O)c1ccc(OCc2cccc(Cl)c2)c(OC2CNC2)c1 [Example 211, 3-(Azetidin-3-yloxy)-4-(3-chloro-benzyloxy)-N,N-dimethyl-benzamide]  9000 nM
2. Fc1cc(Cl)cc(OC2CNC2)c1OCc1ccc(C(F)(F)F)o1 [Example 198, 3-[5-Chloro-3-fluoro-2-(5-trifluoromethyl-furan-2-ylmethoxy)-phenoxy]-azetidine]  1460 nM
3. Clc1cccc(COc2ccc(-c3ccsc3)cc2OC2CNC2)c1 [Example 210, 3-[2-(3-Chloro-benzyloxy)-5-thiophen-3-yl-phenoxy]-azetidine]  506 nM
4. Fc1ccc(OCc2cccc(Cl)c2)c(OC2CNC2)c1 [Example 202, 3-[2-(3-Chloro-benzyloxy)-5-fluoro-phenoxy]-azetidine hydrochloride]  66 nM
5. CC(C)N1CC(Oc2cc(F)ccc2OCc2cccc(Cl)c2)C1 [Example 204, 3-[2-(3-Chloro-benzyloxy)-5-fluoro-phenoxy]-1-isopropyl-azetidine]  27 nM
6. Fc1ccc(OCc2cccc(Cl)c2)c(OC2CN(C3CCC3)C2)c1 [Example 205, 3-[2-(3-Chloro-benzyloxy)-5-fluoro-phenoxy]-1-cyclobutyl-azetidine]  27 nM
7. CCCN1CC(Oc2cc(F)ccc2OCc2cccc(Cl)c2)C1 [Example 206, 3-[2-(3-Chloro-benzyloxy)-5-fluoro-phenoxy]-1-propyl-azetidine]  21 nM
